According to patent US7462600B2, “Macrolides” (Pfizer Inc, priority 2004, dated 2008):
≈ marks a conversion by molar mass, not a printed value. Read-outs that look alike come from different tables or passages of the source.

Experiments:
Format in all cases: cell-based
[1] = test system: Haemophilus influenzae 1218; assay: MIC, microtiter broth dilution (NCCLS M100-S14), H. influenzae 1218 (susceptible)
Procedure, shortened: (§1)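 Steps: dissolve compound in DMSO to 40 mg/ml stock; dilute in broth across microtiter trays; inoculate strains; record MIC per NCCLS M100-S14.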

[2] = test system: Streptococcus pyogenes 1079; assay: MIC, microtiter broth dilution (NCCLS M100-S14), S. pyogenes 1079 (ermB)
Procedure, shortened: as §1

[3] = test system: Streptococcus pneumoniae 1175; conditions: microtiter broth dilution
Procedure, shortened: as §1

[4] = test system: Streptococcus pneumoniae 1095; conditions: microtiter broth dilution
Procedure, shortened: as §1

[5] = test system: Streptococcus pneumoniae 1016; assay: MIC, microtiter broth dilution (NCCLS M100-S14), S. pneumoniae 1016 (susceptible)
Procedure, shortened: as §1

[6] = H. influenzae 1218 (susceptible)
[7] = S. pneumoniae 1016 (susceptible)

With CCC1OC(=O)C(C)C(=O)C(C)C(OC2OC(C)CC(N(C)C)C2O)C(C)(OC)CC(C)C(=O)C(C)C2N(CC3CN(C(=O)c4cncc5ccccc45)C3)C(=O)OC12C.O=CO (stereo not shown) [4.47] the “MIC H. influenzae 1218” value ([1]; Haemophilus influenzae 1218) was 0.75 µg/mL, the “MIC S. pyogenes 1079” value ([2]; Streptococcus pyogenes 1079) was greater than 64.00 µg/mL and the “MIC S. pneumo. 1175” value ([3]; Streptococcus pneumoniae 1175) was 0.12 µg/mL. For the same molecule, the “MIC S. pneumo. 1095” value ([4]; Streptococcus pneumoniae 1095) was 0.19 µg/mL and the “MIC S. pneumo. 1016” value ([5]; Streptococcus pneumoniae 1016) was less than 0.06 µg/mL.

For CCC1OC(=O)C(C)C(=O)C(C)C(OC2OC(C)CC(N(C)C)C2O)C(C)(OC)CC(C)C(=O)C(C)C2N(C3CN(Cc4ccc5nccnc5c4)C3)C(=O)OC12C (stereo not shown) [Example 1.28, 3-descladinosyl-11,12-dideoxy-6-O-methyl-3-oxo-12,11-(oxycarbonyl-(1-((quinoxalin-6-yl)-methyl)-azetidin-3-yl)-imino)-erythromycin A], the “MIC H. influenzae 1218” value ([1]; Haemophilus influenzae 1218) was 0.5 µg/mL (≈ 0.617 µM), the “MIC S. pyogenes 1079” value ([2]; Streptococcus pyogenes 1079) was 8 µg/mL (≈ 9.88 µM) and the “MIC S. pneumo. 1175” value ([3]; Streptococcus pneumoniae 1175) was 4 µg/mL (≈ 4.94 µM). For the same molecule, the “MIC S. pneumo. 1095” value ([4]; Streptococcus pneumoniae 1095) was less than 0.06 µg/mL and the “MIC S. pneumo. 1016” value ([5]; Streptococcus pneumoniae 1016) was less than 0.06 µg/mL.

CCC1OC(=O)C(C)C(=O)C(C)C(OC2OC(C)CC(N(C)C)C2O)C(C)(OC)CC(C)C(=O)C(C)C2N(C3CN(Cc4cccc5ccccc45)C3)C(=O)OC12C (stereo not shown) [Example 1.91, 3-descladinosyl-11,12-dideoxy-6-O-methyl-3-oxo-12,11-(oxycarbonyl-(1-(naphthalene-1-methyl)-azetidin-3-yl)-imino)-erythromycin A] was tested, and the “MIC H. influenzae 1218” value ([1]; Haemophilus influenzae 1218) was 1 µg/mL (≈ 1.24 µM), the “MIC S. pyogenes 1079” value ([2]; Streptococcus pyogenes 1079) was 8 µg/mL (≈ 9.9 µM) and the “MIC S. pneumo. 1175” value ([3]; Streptococcus pneumoniae 1175) was less than 0.063 µg/mL. For the same molecule, the “MIC S. pneumo. 1095” value ([4]; Streptococcus pneumoniae 1095) was 0.125 µg/mL (≈ 0.155 µM) and the “MIC S. pneumo. 1016” value ([5]; Streptococcus pneumoniae 1016) was less than 0.063 µg/mL.

For CCC1OC(=O)C(C)C(=O)C(C)C(OC2OC(C)CC(N(C)C)C2O)C(C)(OC)CC(C)C(=O)C(C)C2N(CC3CN(C(c4ccccc4)c4ccccc4)C3)C(=O)OC12C (stereo not shown) [Example 4.01, 3-descladinosyl-11,12-dideoxy-6-O-methyl-3-oxo-12,11-(oxycarbonyl-(1-(benzhydryl)-(azetidin-3-yl)-methyl)-imino)-erythromycin A], the “MIC H. influenzae 1218” value ([1]; Haemophilus influenzae 1218) was 6.25 µg/mL (≈ 7.37 µM), the “MIC S. pyogenes 1079” value ([2]; Streptococcus pyogenes 1079) was 6.25 µg/mL (≈ 7.37 µM) and the “MIC S. pneumo. 1175” value ([3]; Streptococcus pneumoniae 1175) was 0.39 µg/mL (≈ 0.46 µM). For the same molecule, the “MIC S. pneumo. 1095” value ([4]; Streptococcus pneumoniae 1095) was 0.39 µg/mL (≈ 0.46 µM) and the “MIC S. pneumo. 1016” value ([5]; Streptococcus pneumoniae 1016) was less than 0.00 µg/mL.

For CC[C@H]1OC(=O)[C@H](C)C(=O)[C@H](C)[C@@H](O[C@@H]2O[C@H](C)C[C@H](N(C)C)[C@H]2O)[C@](C)(OC)C[C@@H](C)C(=O)[C@H](C)[C@H]2N(CC3(C)CN(Cc4ccc5[nH]ccc5c4)C3)C(=O)O[C@]12C [6.10], the “MIC H. influenzae 1218” value [1, 6] was 1 µg/mL (≈ 1.21 µM), the “MIC S. pyogenes 1079” value ([2]; S. pyogenes 1079 (ermB)) was greater than 64.00 µg/mL and the “MIC S. pneumo. 1175” value ([3]; S. pneumoniae 1175 (mefA)) was 0.12 µg/mL (≈ 0.145 µM). For the same molecule, the “MIC S. pneumo. 1095” value ([4]; S. pneumoniae 1095 (ermB)) was 0.25 µg/mL (≈ 0.303 µM) and the “MIC S. pneumo. 1016” value [5, 7] was less than 0.06 µg/mL.

In the case of CCC1OC(=O)C(C)C(=O)C(C)C(OC2OC(C)CC(N(C)C)C2O)C(C)(OC)CC(C)C(=O)C(C)C2N(C3CN(C(c4ccccc4)c4cccnc4)C3)C(=O)OC12C (single isomer, unassigned) [Example 1.67, phenyl-(pyridin-3-yl)methyl (*)], the “MIC H. influenzae 1218” value ([1]; Haemophilus influenzae 1218) is reported as 0.5 µg/mL (≈ 0.599 µM), the “MIC S. pyogenes 1079” value ([2]; Streptococcus pyogenes 1079) is reported as 16 µg/mL (≈ 19.2 µM) and the “MIC S. pneumo. 1175” value ([3]; Streptococcus pneumoniae 1175) is reported as less than 0.06 µg/mL. For the same molecule, the “MIC S. pneumo. 1095” value ([4]; Streptococcus pneumoniae 1095) was less than 0.06 µg/mL and the “MIC S. pneumo. 1016” value ([5]; Streptococcus pneumoniae 1016) was less than 0.06 µg/mL.

For CCC1OC(=O)C(C)C(=O)C(C)C(OC2OC(C)CC(N(C)C)C2O)C(C)(OC)CC(C)C(=O)C(C)C2N(CC3CCN(Cc4cnn(-c5ccccn5)c4)C3)C(=O)OC12C (stereo not shown) [11.14], the “MIC H. influenzae 1218” value [1, 6] was 2 µg/mL (≈ 2.34 µM), the “MIC S. pyogenes 1079” value ([2]; S. pyogenes 1079 (ermB)) was 32 µg/mL (≈ 37.5 µM) and the “MIC S. pneumo. 1175” value ([3]; S. pneumoniae 1175 (mefA)) was 0.25 µg/mL (≈ 0.293 µM). For the same molecule, the “MIC S. pneumo. 1095” value ([4]; S. pneumoniae 1095 (ermB)) was 0.25 µg/mL (≈ 0.293 µM) and the “MIC S. pneumo. 1016” value [5, 7] was less than 0.06 µg/mL.

CCC1OC(=O)C(C)C(=O)C(C)C(OC2OC(C)CC(N(C)C)C2O)C(C)(OC)CC(C)C(=O)C(C)C2N(C3CN(S(=O)(=O)c4cccc(-c5nnc(C)o5)c4)C3)C(=O)OC12C (stereo not shown) [Example 3.60, 3-descladinosyl-11,12-dideoxy-6-O-methyl-3-oxo-12,11-(oxycarbonyl-(1-(3-(5-methyl-1,3,4-oxadiazol-2-yl)benzenesulfonyl)-azetidin-3-yl)imino)erythromycin A] was tested, and the “MIC H. influenzae 1218” value ([1]; Haemophilus influenzae 1218) was 2 µg/mL (≈ 2.25 µM), the “MIC S. pyogenes 1079” value ([2]; Streptococcus pyogenes 1079) was 4 µg/mL (≈ 4.49 µM) and the “MIC S. pneumo. 1175” value ([3]; Streptococcus pneumoniae 1175) was 0.12 µg/mL (≈ 0.135 µM). For the same molecule, the “MIC S. pneumo. 1095” value ([4]; Streptococcus pneumoniae 1095) was less than 0.06 µg/mL and the “MIC S. pneumo. 1016” value ([5]; Streptococcus pneumoniae 1016) was less than 0.06 µg/mL.
